This is an account of results in ChEMBL document CHEMBL1156520, “Inhibition of human dimethylarginine dimethylaminohydrolase-1 by S-nitroso-L-homocysteine and hydrogen peroxide. Analysis, quantification, and implications for hyperhomocysteinemia” (J Biol Chem, 2007).

A short description of assay [1]: Inhibition of recombinant N-glutathione transferase/human DDAH1 fusion protein.
In assay [2] the target is N(G),N(G)-dimethylarginine dimethylaminohydrolase 1 (Homo sapiens, UniProt O94760). The experiment in a line: Inhibition of human recombinant DDAH1.
N(G),N(G)-dimethylarginine dimethylaminohydrolase 1, sequence (O94760 whole entry): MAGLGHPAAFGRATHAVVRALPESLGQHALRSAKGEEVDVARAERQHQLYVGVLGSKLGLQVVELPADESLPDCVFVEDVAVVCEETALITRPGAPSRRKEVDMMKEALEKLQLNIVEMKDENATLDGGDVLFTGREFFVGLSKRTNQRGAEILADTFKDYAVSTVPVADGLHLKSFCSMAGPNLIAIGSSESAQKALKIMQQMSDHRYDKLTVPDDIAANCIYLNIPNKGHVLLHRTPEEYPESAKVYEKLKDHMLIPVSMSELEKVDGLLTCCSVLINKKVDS

SMILES strings stand for the structures.

What is called Ki is the equilibrium dissociation constant of an inhibitor or competing ligand from its target. For `NCCCC[C@H](N)C(=O)O` [LYSINE], in assay [1], the Ki was found to be 2800 µM.

As usually defined, the IC50 is the midpoint of a concentration-inhibition curve. As to `N[C@@H](CCS)C(=O)O` [L-HOMOCYSTEINE], the concentration for half-maximal inhibition (IC50) in assay [2] came to 640 µM.
